T1: CamA SeMet (Clostridioides difficile 630, UniProt Q183J3 1-577)
T1 sequence: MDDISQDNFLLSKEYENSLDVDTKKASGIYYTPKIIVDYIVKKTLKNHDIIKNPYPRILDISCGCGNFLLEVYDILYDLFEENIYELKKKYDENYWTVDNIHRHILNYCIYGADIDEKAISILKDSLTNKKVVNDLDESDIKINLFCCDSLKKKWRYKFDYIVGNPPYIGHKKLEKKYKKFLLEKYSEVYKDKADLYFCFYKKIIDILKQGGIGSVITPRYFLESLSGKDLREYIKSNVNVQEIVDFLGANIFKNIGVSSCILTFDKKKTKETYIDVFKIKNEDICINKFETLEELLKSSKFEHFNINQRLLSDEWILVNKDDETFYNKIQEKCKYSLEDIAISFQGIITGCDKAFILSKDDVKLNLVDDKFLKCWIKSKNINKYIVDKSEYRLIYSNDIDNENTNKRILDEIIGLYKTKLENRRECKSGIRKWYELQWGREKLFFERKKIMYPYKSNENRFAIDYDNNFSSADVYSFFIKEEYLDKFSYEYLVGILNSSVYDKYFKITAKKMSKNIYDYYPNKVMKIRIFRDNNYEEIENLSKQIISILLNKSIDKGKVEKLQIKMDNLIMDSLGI

T2: CamA (Clostridioides difficile 630, UniProt Q183J3 1-577)
T2 sequence: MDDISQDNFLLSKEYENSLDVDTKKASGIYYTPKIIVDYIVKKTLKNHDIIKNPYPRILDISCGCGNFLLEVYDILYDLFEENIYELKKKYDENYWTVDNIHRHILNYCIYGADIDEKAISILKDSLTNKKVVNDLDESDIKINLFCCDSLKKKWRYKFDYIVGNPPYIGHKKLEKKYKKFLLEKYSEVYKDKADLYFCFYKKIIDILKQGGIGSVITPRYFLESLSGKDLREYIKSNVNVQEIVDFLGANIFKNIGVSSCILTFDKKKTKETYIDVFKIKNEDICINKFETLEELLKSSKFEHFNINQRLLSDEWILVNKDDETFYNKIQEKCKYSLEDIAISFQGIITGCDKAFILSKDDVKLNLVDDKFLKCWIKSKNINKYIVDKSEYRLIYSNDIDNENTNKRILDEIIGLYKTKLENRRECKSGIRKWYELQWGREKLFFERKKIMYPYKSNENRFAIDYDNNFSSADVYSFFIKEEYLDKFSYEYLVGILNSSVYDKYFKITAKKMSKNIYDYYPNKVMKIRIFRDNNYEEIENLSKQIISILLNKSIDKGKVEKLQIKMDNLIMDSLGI

B1: co-crystal DNA 13 bp + overhangs (dsDNA)
DNA 1: TTCAAAAAGTCCCA
DNA 2: ATGGGACTTTTTGA

Legend:
CamA [1] = target: T3, CamA (Clostridioides difficile, UniProt Q183J3); assay: isothermal titration calorimetry, one-site fit; assay type: binding
T3 construct: gene CD630_27580; full length, 577 residues; N-terminal His-SUMO tag cut by ULP protease leaving His-Met; E. coli Rosetta, plasmid pXC2184; active as monomer

CamA [2] = target: T3, CamA; assay: MTase-Glo luminescence assay of SAH formation; assay type: biochemical; conditions: 20 µM dsDNA substrate (CAAAAA site), 50 nM CamA, 100 mM NaCl, 20 mM Tris-HCl pH 7.5, ~22 °C, 2.5 min
CamA SeMet = target: T1, CamA SeMet; assay: X-ray crystallography; no cofactor; ITC at 25 C: 200 uM DNA into 18-20 uM CamA, 20 mM HEPES pH 8.0, 0.5 mM TCEP, 5% glycerol, 150 or 250 mM NaCl (cofactor comparison at 250 mM NaCl); conditions: protein: recombinant; tags: His-SUMO cleaved, leaves N-terminal His-Met; 5' overhang 1 nt at each end (T / A)
CamA [3] = target: T2, CamA; assay: X-ray crystallography; no cofactor bound (SAH dissociated); 2.68 A; ITC at 25 C: 200 uM DNA into 18-20 uM CamA, 20 mM HEPES pH 8.0, 0.5 mM TCEP, 5% glycerol, 150 or 250 mM NaCl (cofactor comparison at 250 mM NaCl); conditions: protein: recombinant; tags: His-SUMO cleaved, leaves N-terminal His-Met; 5' overhang 1 nt at each end (T / A)

Molecule | Kd (CamA [1]) [µM] | Km (CamA [2]) [µM] | binding result (CamA SeMet) | binding result (CamA [3])
Nc1ncnc2c1ncn2[C@@H]1O[C@H](CSCC[C@H](N)C(=O)O)[C@@H](O)[C@H]1O [SAH] | 8 | – | – | –
C[S+](CC[C@H](N)C(=O)O)C[C@H]1O[C@@H](n2cnc3c(N)ncnc32)[C@H](O)[C@@H]1O (stereo partly drawn) [SAM] | 23 to 35 | > 17 | – | –
Nc1ncnc2c1ncn2[C@@H]1O[C@H](C[C@@H](N)CC[C@H](N)C(=O)O)[C@@H](O)[C@H]1O [sinefungin] | 19 | – | – | –
B1 | – | – | binds | binds

From paper PMC8187626, “Clostridioides difficile specific DNA adenine methyltransferase CamA squeezes and flips adenine out of DNA helix” (Nature Communications, 2021)
